Legend:
Format in all cases: cell-based
[1] = tested on: S. aureus UBMS 88-7 Tet K; test: microbe, parasite or virus in culture; conditions: 18 hours at 35° C.
[2] = tested on: S. aureus IVES 1 983; test: MIC, agar dilution method; conditions: Staphylococcus aureus, IVES1983, 18 h
[3] = tested on: E. coli UBMS 90-4 Tet M; test: microbe, parasite or virus in culture; conditions: Escherichia coli, UBMS904TETM, 18 h, 18 hours at 35° C.
[4] = tested on: X. maltophilia NEMC 87210; test: MIC, agar dilution method; conditions: Stenotrophomonas maltophilia, NEMC87210, 18 h, 18 hours at 35° C.
[5] = tested on: E. coli UBMS 90-5 sens; test: MIC, agar dilution method; conditions: Escherichia coli, UBMS905SENS, 18 hours at 35° C., read-out: MIC
[6] = tested on: E. coli J3272 Tet D; test: microbe, parasite or virus in culture; conditions: Escherichia coli, J3272TETD, 18 h
[7] = tested on: S. aureus IVES 2943; test: MIC, agar dilution method; conditions: Staphylococcus aureus, IVES2943, 18 h
[8] = tested on: S. aureus NEMC 8769; test: MIC, agar dilution method; conditions: Staphylococcus aureus, NEMC8769, 18 h, S. aureus NEMC 8769; 18 hours at 35° C.
[9] = tested on: S. aureus SMITH (MP); test: MIC, agar dilution method; conditions: 18 hours at 35° C.
[10] = tested on: Ps. acruginosa ATCC 27853; test: MIC, agar dilution method; conditions: Ps. acruginosa ATCC 27853; 18 hours at 35° C.; read-out: MIC
[11] = tested on: E. coli ATCC 25922; test: MIC, agar dilution method; conditions: Escherichia coli, ATCC25922, 18 hours at 35° C., read-out: MIC
[12] = tested on: Enterococcus 12201; test: MIC, agar dilution method; conditions: 18 hours at 35° C.
[13] = tested on: S. aureus UBMS 90-3; test: MIC, agar dilution method; conditions: Staphylococcus aureus, UBMS903; S. aureus UBMS 90-3; 18 hours at 35° C.; read-out: MIC
[14] = tested on: E. coli #311 (MP); test: MIC, agar dilution method; conditions: Escherichia coli, 18 hours at 35° C., read-out: MIC
[15] = tested on: S. aureus ATCC 29213; test: MIC, agar dilution method; conditions: 18 hours at 35° C.
[16] = tested on: E. coli UBMS 89-2 Tet sens; test: MIC, agar dilution method; conditions: Escherichia coli, UBMS892TETSENS, 18 h, 18 hours at 35° C., read-out: MIC
[17] = tested on: E. coli J2175; test: MIC, agar dilution method; conditions: Escherichia coli, 18 hours at 35° C., read-out: MIC
[18] = tested on: E. coli BAJ9003 IMP MUT; test: microbe, parasite or virus in culture; conditions: 18 hours at 35° C.
[19] = tested on: S. aureus UBMS 90-1 Tet M; test: microbe, parasite or virus in culture; conditions: 18 hours at 35° C.
[20] = tested on: E. coli UBMS 89-1 Tet M; test: microbe, parasite or virus in culture; conditions: Escherichia coli, UBMS891TETM, 18 h, 18 hours at 35° C.
[21] = tested on: E. coli J3272 Tet sens; test: MIC, agar dilution method; conditions: Escherichia coli, J3272TETSENS, 18 hours at 35° C.
[22] = tested on: E. coli J3272 Tet C; test: microbe, parasite or virus in culture; conditions: Escherichia coli, J3272TETC, 18 h
[23] = tested on: S. hemolyticus AVHAH 88-3; test: MIC, agar dilution method; conditions: Streptococcus pyogenes, AVHAH883, 18 h, 18 hours at 35° C.
[24] = tested on: S. aureus UBMS 88-4; test: MIC, agar dilution method; conditions: Staphylococcus aureus, UBMS884, 18 hours at 35° C., read-out: MIC
[25] = tested on: E. coli UBMS 88-1 Tet B; test: microbe, parasite or virus in culture; conditions: Escherichia coli, UBMS881TETB, 18 h, 18 hours at 35° C.
[26] = tested on: S. aureus UBMS 88-5 Tet M; test: microbe, parasite or virus in culture; conditions: Staphylococcus aureus, UBMS885TETM, 18 h
[27] = tested on: S. aureus ROSE (MP); test: MIC, agar dilution method; conditions: 18 hours at 35° C.
[28] = tested on: E. coli MC 4100 TNIOC Tet B; test: microbe, parasite or virus in culture; conditions: Escherichia coli, 18 h, 18 hours at 35° C.
[29] = tested on: S. aureus UBMS 90-2 Tet M; test: microbe, parasite or virus in culture; conditions: Staphylococcus aureus, UBMS902TETM, 18 h, 18 hours at 35° C.
[30] = tested on: E. coli PRP1 Tet A; test: microbe, parasite or virus in culture; conditions: Escherichia coli, PRP1TETA, 18 h, 18 hours at 35° C.
[31] = tested on: S. mariescens FPOR 8733; test: MIC, agar dilution method; conditions: 18 h, 18 hours at 35° C.
[32] = tested on: E. faecalis ATCC 29212; test: MIC, agar dilution method; conditions: Enterococcus faecalis, ATCC29212, 18 hours at 35° C., read-out: MIC

CN(C)CC(=O)Nc1c(Cl)cc2c(c1O)C(=O)C1=C(O)[C@]3(O)C(=O)C(C(N)=O)=C(O)[C@@H](N(C)C)C3CC1C2 (stereo partly drawn) [A, [4S-(4α,12aα)]-8-Chloro-4-(dimethylamino)-9-[[(dimethylamino)acetyl]amino]-1,4,4a,5,5a,6,11,12a-octahydro-3,10,12,12a-tetrahydroxy-1,11-dioxo-2-naphthacenecarboxamide disulfate]
MIC [1]: 2 µg/mL
MIC [2]: 4 µg/mL
MIC [3]: 1 µg/mL
MIC [4]: 2 µg/mL
MIC [5]: 1 µg/mL
MIC [6]: 0.5 µg/mL
MIC [7]: 4 µg/mL
MIC [8]: 0.06 µg/mL
MIC [9]: 0.25 µg/mL
MIC [10]: > 32 µg/mL
MIC [11]: 0.5 µg/mL
MIC [12]: 0.25 µg/mL
MIC [13]: 0.12 µg/mL
MIC [14]: 0.5 µg/mL
MIC [15]: 0.03 µg/mL
MIC [16]: 2 µg/mL
MIC [17]: 1 µg/mL
MIC [18]: 0.25 µg/mL
MIC [19]: 0.5 µg/mL
MIC [20]: 0.5 µg/mL
MIC [21]: 1 µg/mL
MIC [22]: 8 µg/mL
MIC [23]: 1 µg/mL
MIC [24]: 0.12 µg/mL
MIC [25]: 2 µg/mL
MIC [26]: 0.25 µg/mL
MIC [27]: 16 µg/mL
MIC [28]: 2 µg/mL
MIC [29]: 0.5 µg/mL
MIC [30]: 4 µg/mL
MIC [31]: 16 µg/mL
MIC [32]: 0.12 µg/mL

Source: patent US5495032A, “Process for producing 7-(substituted)-8-(substituted-9-[(substituted glycyl)amido]-6-demethyl-6-deoxytetracyclines” (priority 1994, dated 1996)
